Like-named read-outs stand apart in the source and are kept apart here.
Experiments:
MOLM-13 = assay: Long term proliferation assay (Table 3A), MOLM-13; format: cell-based; details: Homo sapiens
Experimental: (§1) Example 5b: IC50 determination of compounds of invention in various cell lines (Long Term Proliferation Assay)
(§2) The following 5 cell lines are used or can be used for the long term proliferation assay.
(§3) Compounds of invention are tested in the 5 suspension lines by 14-day long-term proliferation assay.
(§4) The compound is tested in 10-pt dose titration (client will determine the starting concentration and the dilution scheme) and the final DMSO concentration is kept at 0.2%.
(§5) Vehicle and media control are also included. All treatments are done in triplicate.
(§6) 3 plates are used for each cell line and 15 plates are used for the 5 cell lines.
(§7) • 1) On Day 0, in a flat bottom 96-well plate, add 100 μL of cells per well at the densities optimized. • 2) Prepare compounds in DMSO at 500× final concentration. Dilute the compounds with DMSO at the dilution. • 3) Dilute the compounds in media at 3×final concentration. Add 50 μL of compound or DMSO at 3× final concentration to each well. Final volume in each well is 150 μL, and final concentration of DMSO is 0.2%. Also include 3 untreated control wells, by adding 50 μL of media alone. 4) Incubate plates for 96 hours. • 5) Count the cells using the Acumen, with capabilities for 96-well plates. Pipette cells up and down to mix in each well, and add desired volume of cells to a new flat bottom poly-D-lysine 96-well plate. Add Calcein AM at 1 μM final concentration. Let cells sit at RT for 10 mins followed by a quick spin to get cells settled on the bottom of the wells. Incubate the plate for additional 40 mins in the incubator. Take out the plate and read by Acumen. Calculate the cell numbers taken into account the dilution factors. • 6) Split the master plate. To do this take the total viable cell count calculated using step 5). Take the average of the replicates for each dose in order to be used in splitting the cells. • 7) Use a 96 well V-bottom plate to spin down the cells to remove old media and compound to split the cells. Based on the split ratio place the proper amount of media and cells into the V-bottom plate, and spin the plate at 1100 rpm for 5 minutes. • 8) Following the spin remove the media, careful not to disturb the cellpellet. • 9) Re-suspend pellet in 100 μL fresh media, and add to a new 96-well flat bottom plate. • 10) Add fresh compound, in the same manner as Step 3). • 11) Incubate plates for 72 hours. Repeat steps 5)-10) on Day 7. • 12) Incubate plates for 96 hours. Repeat Step 5)-10) on Day 11. • 13) Incubate 72 hours and repeat step 5) to take a final count. • 14) Data Analysis
(§8) To calculate growth for days 4, 7, 11, and 14: • Calculate the split factor for day 4 to 7, day 7 to 11, and day 11-14.

MV-4-11 = assay: Long term proliferation assay (Table 3A), MV-4-11; format: cell-based; details: Homo sapiens, MV4-11
Experimental: as §1, §2, §3, §4, §5, §6, §7, §8

[1] = 96 h, MOLM-13, Day 4, read-out: MOLM-13 Day 4 IC50
[2] = 264 h, MOLM-13, Day 11, read-out: MOLM-13 Day 11 IC50
[3] = MV-4-11, Day 4, read-out: MV-4-11 Day 4 IC50
[4] = MV-4-11, Day 11, read-out: MV-4-11 Day 11 IC50

IC50 (MOLM-13; [1]) [µM]	IC50 (MOLM-13; [2]) [µM]	IC50 (MV-4-11; [3]) [µM]	IC50 (MV-4-11; [4]) [µM]	Structure (SMILES)
0.115	0.032	0.129	0.066	O=C(Cc1cc(-c2cccnc2)no1)Nc1ccc(-c2cc3c(N4CCOCC4)ncnc3[nH]2)cc1 [Compound 5, N-{4-[4-(morpholin-4-yl)-7H-pyrrolo[2,3-d]pyrimidin-6-yl]phenyl}-2-[3-(pyridin-3-yl)-1,2-oxazol-5-yl]acetamide]
0.178	0.05	0.229	0.074	CC(C)c1c(-c2cccnc2)noc1NC(=O)Nc1ccc(-c2cc3c(N4CCOCC4)ncnc3[nH]2)cc1 [Compound 6, 1-{4-[4-(morpholin-4-yl)-7H-pyrrolo[2,3-d]pyrimidin-6-yl]phenyl}-3-[4-(propan-2-yl)-3-(pyridin-3-yl)-1,2-oxazol-5-yl]urea]
0.933	0.871	0.891	0.631	CC(C)c1cc(-c2cc3c(N4CCOCC4)ncnc3[nH]2)ccc1NC(=O)Nc1cc(-c2cccnc2)no1 [Compound 7, 1-{4-[4-(morpholin-4-yl)-7H-pyrrolo[2,3-d]pyrimidin-6-yl]-2-(propan-2-yl)phenyl}-3-[3-(pyridin-3-yl)-1,2-oxazol-5-yl]urea]

— US20240140953A1, “INHIBITORS OF MENIN-MLL INTERACTION” (BIOMEA FUSION, INC., priority 2018, published 2024)
